In patent US20020054880A1, “Anti-inflammatory, tolerogenic and immunoinhibiting properties of carbohydrate binding-peptides” (priority 1992, published 2002):

Columns and labels:
[1] = biological target: SPYGRC-biotin binding to fetuin (Bordetella pertussis, UniProt P04978); assay: Inhibition of SPYGRC-biotin binding to fetuin by simple saccharides; details: saccharide 8 mM in PBS, 0.5 μg SPYGRC-biotin, fetuin 3 μg/ml, + enhancement
Procedure: Binding inhibition assays were done using sialic acid, sialyllactose, lactose, or N-acetyl-glucosamine at a concentration of 8 mM in PBS. […] The pH of free sialic acid was carefully monitored and adjusted to physiological pH values with dilute sodium hydroxide.

[2] = biological target: T1, ACS2P1-biotin binding to fetuin (Bordetella pertussis, UniProt P04978); details: saccharide 8 mM in PBS; 0.1 μg ACS2P1-biotin; fetuin 3 μg/ml; + enhancement, − inhibition
T1 construct: 2; ACS2P1-b; 9-23; made in house; host or cells: chemical synthesis

[3] = biological target: T2, ACS2P1-biotin binding to fetuin (Bordetella pertussis, UniProt P04978, G45S); details: saccharide 8 mM; n=3
T2 construct: 2; ACS2P1-b; 9-23; made in house; host or cells: chemical synthesis

[4] = tested on: Balb/c mice; assay: DTH inflammatory response, mouse footpad swelling assay; format: in vivo; details: 100 μg peptide into the tail vein 5 hours after challenge with 20 μg OVA; FIG. 2
Procedure: DTH inflammatory responses were measured using the mouse footpad swelling assay as described by Smith and Ziola^64. Briefly, groups of Balb/c mice (about 19-20 grams each) were immunized with 100 μg of the OVA antigen containing 20μg of the adjuvant (DDA—dimethyl-dioctadecylammonium bromide) which also induces a strong inflammatory DTH response. Seven days later, each group of mice was footpad-challenged with 20 μg of the OVA antigen (without adjuvant). The resulting inflammatory footpad swelling was measured with a Mitutoyo Engineering micrometer 24 hours after challenge.
To assess the effect of different peptides on the inflammatory DTH response, groups of mice received 100 μg of the following peptides- ACS2P1 (2275), SPYGRC (2283), and S3P9a. These peptides were injected as a solution into the tail vein, 5 hours after challenge. Control groups were left untreated or received 100 μL of phosphate-buffered saline (PBS).

[5] = biological target: T3, SNA-biotin binding to fetuin (Bos taurus, UniProt P12763); assay: biochemical; details: for Percent Changes in Binding Activity SNA/fetuin: peptide mg/mL: S2PL 1.2, ACS2P1 1.0, S2(14-2.3) 1.0, S2P2 1.1, S2P3 0.51, S2P4 0.98, S2P6 0.85, S3P1 3.2, S3P2 3.1, S3P3 4.5, S3P4 3.3, S3P5 0.48, S3P9a 1.7, SPYGRC 4.4, S2(WGA) 1.0, WGA (62-73) 1.0
T3 sequence (P12763 19-359): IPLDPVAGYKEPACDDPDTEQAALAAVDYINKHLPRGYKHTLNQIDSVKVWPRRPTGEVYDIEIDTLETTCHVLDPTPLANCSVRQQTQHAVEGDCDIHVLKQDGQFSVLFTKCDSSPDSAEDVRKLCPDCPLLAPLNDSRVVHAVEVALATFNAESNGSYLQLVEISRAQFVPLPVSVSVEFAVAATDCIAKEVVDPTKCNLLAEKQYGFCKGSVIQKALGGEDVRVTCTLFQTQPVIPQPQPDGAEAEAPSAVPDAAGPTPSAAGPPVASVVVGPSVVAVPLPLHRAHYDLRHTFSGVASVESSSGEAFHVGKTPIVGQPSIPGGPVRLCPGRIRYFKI
Procedure: (§1) The solution was removed by aspiration and replaced with 100 μl of 1% BSA in PBS containing 0.05% Tween 20 (PBST). After incubation for 2-4 hours at room temperature, the microtiter wells were washed four times with 300 μl of PBST. Peptides ranging in concentration from 0.5 to 4.5 mg/ml in PBS (40 μl) were added to each well and PT-biotin (10 μl containing 10 ng in PBS) was then added to the microtiter wells. After incubating for 1 hour, the binding reaction was stopped by aspirating the solutions and the plate was washed with PBST (300 μl). Horseradish peroxidase-conjugated avidin (100 μl, 1/3000 dilution in PBST to a concentration of 0.3 μg/ml) was then added to the wells, and the plates were incubated at ambient temperature for 1 hour. After washing the wells as described above, the substrate solution [1 mM ABTS in 5 mM citrate buffer, pH 4.2, containing 0.1% hydrogen peroxide, v/v) was added and the plates were incubated for 30 minutes. Color development was recorded at 405 nm using a Titertek Multiskan MC plate reader. Maximum binding was determined in the absence of peptide, and background binding was measured in wells coated with BSA only. Binding assays for each peptide were done in duplicate. Binding inhibition experiments utilizing SNA-, WGA-, and MAL-biotin were performed as described above using 10 ng of each biotinylated lectin in PBS.

[6] = biological target: T4, PT-biotin binding to fetuin (Bos taurus, UniProt P12763); assay: PT-biotin binding to fetuin, binding inhibition assay; design: species or system Bordetella pertussis; details: + enhancement, − inhibition; for Percent Changes in Binding Activity PT/fetuin: peptide mg/mL: S2PL 1.2, ACS2P1 1.0, S2(14-2.3) 1.0, S2P2 1.1, S2P3 0.51, S2P4 0.98, S2P6 0.85, S3P1 3.2, S3P2 3.1, S3P3 4.5, S3P4 3.3, S3P5 0.48, S3P9a 1.7, SPYGRC 4.4, S2(WGA) 1.0, WGA (62-73) 1.0
T4 construct: purchased Sigma Chemical Company (fetuin); Connaught Center for Biotechnology Research (PT)
T4 sequence (P12763 19-359): T3 sequence (P12763 19-359)
Procedure: (§2) Peptides ranging in concentration from 0.5 to 4.5 mg/ml in PBS (40 μl) were added to each well and PT-biotin (10 μl containing 10 ng in PBS) was then added to the microtiter wells. […] Horseradish peroxidase-conjugated avidin (100 μl, 1/3000 dilution in PBST to a concentration of 0.3 μg/ml) was then added to the wells, and the plates were incubated at ambient temperature for 1 hour. […] Color development was recorded at 405 nm using a Titertek Multiskan MC plate reader. […] Binding assays for each peptide were done in duplicate. Binding inhibition experiments utilizing SNA-, WGA-, and MAL-biotin were performed as described above using 10 ng of each biotinylated lectin in PBS.
(§3) Binding assays for each inhibitor concentration were done at least in duplicate, and the average value varied less than 15%.

[7] = tested on: Balb/c mice; assay: Persistence of suppression of DTH response on OVA re-challenge at 2 weeks; format: in vivo; details: mice treated as in Example 11, re-challenged at 2 weeks; FIG. 3
Source text: Identical groups of mice treated with the peptides in Example 11 above, were re-challenged with OVA antigen 2 weeks after primary immunization.

[8] = biological target: T5, MAL-biotin binding to fetuin (Bos taurus, UniProt P12763); assay: MAL-biotin binding to fetuin, binding inhibition assay; design: species or system Maackia amurensis; details: + enhancement, − inhibition; for Percent Changes in Binding Activity MAL/fetuin: peptide mg/mL: S2PL 1.2, ACS2P1 1.0, S2(14-2.3) 1.0, S2P2 1.1, S2P3 0.51, S2P4 0.98, S2P6 0.85, S3P1 3.2, S3P2 3.1, S3P3 4.5, S3P4 3.3, S3P5 0.48, S3P9a 1.7, SPYGRC 4.4, S2(WGA) 1.0, WGA (62-73) 1.0
T5 construct: purchased Sigma Chemical Company (fetuin); Boehringer Mannheim (MAL-biotin)
T5 sequence (P12763 19-359): T3 sequence (P12763 19-359)
Procedure: as §2, §3

[9] = tested on: pertussis toxin binding to Chinese Hamster ovary (CHO) cell; assay: CHO cell neutralization of pertussis toxin (cell clumping); format: cell-based; details: PT 2.4 ng/ml, peptide and PT 1 hour, triplicate
Procedure: Confluent monolayers of CHO cells were lifted from plastic tissue culture flasks with 0.25% trypsin and suspended at a concentration of 5×10^4 cells/ml in Ham's F12 media containing 10% fetal bovine serum (FBS). 100 μl of the cell suspension was added to 96 well tissue culture plates and were allowed to establish contact with the plastic for 24 to 48 hours. The expended media was then removed and filtered-sterilized peptide 5-fold dilutions ranging in concentration from 300 to 30 femptogram per ml (80 μl) in Ham' F12 media containing FBS were added to the CHO cells. […] The incubation mixtures were gently mixed and incubated at 37° C. for 1 hour in a CO2 incubator. The incubation mixtures were then removed and replaced with fresh media. The tissue culture plates were then incubated for 24 hours at 37° C., fixed with 100% methanol, and stained with Geimsa stain. Control experiments were done in the absence of peptide alone or in the absence of PT. All determinations were done in triplicate. […] The results reported in Table VIII show the maximum peptide concentration required to cause a 50% reduction in CHO cell clumping.

[10] = biological target: T6, ACS2P1-biotin binding to fetuin (Bos taurus, UniProt P12763); assay: biochemical; details: peptide μM: ACS2P1 4.1, S2P2 42.5, SPYGRC 5520, S2P3 22.4, S2P4 6.0, S2P6 319, S3P1 1142, S3P2 934, S3P3 16.1, S3P4 6.4, S3P5 22.5; ACS2P1-biotin 0.1 μg; − inhibition, + enhancement
T6 construct: purchased Sigma Chemical Company
T6 sequence (P12763 19-359): T3 sequence (P12763 19-359)

[11] = biological target: T7, WGA-biotin binding to fetuin (Bos taurus, UniProt P12763); assay: biochemical; details: + enhancement, − inhibition
T7 sequence (P12763 19-359): T3 sequence (P12763 19-359)
Procedure: as §1

[12] = biological target: T8, ACS2P1-biotin binding to asialofetuin (Bos taurus, UniProt P12763); assay: Screening of S2 and S3 peptides for inhibition of ACS2P1-biotin binding to asialofetuin; details: peptide μM: ACS2P1 4.1, S2P2 42.5, SPYGRC 5520, S2P3 22.4, S2P4 6.0, S2P6 319, S3P1 1142, S3P2 934, S3P3 16.1, S3P4 6.4, S3P5 22.5; ACS2P1-biotin 0.1 μg; − inhibition, + enhancement
T8 construct: made in house
T8 sequence (P12763 19-359): T3 sequence (P12763 19-359)

[13] = biological target: T9, PT-biotin binding to asialofetuin (Bos taurus, UniProt P12763); assay: PT-biotin binding to asialofetuin, binding inhibition assay; design: species or system Bordetella pertussis; details: peptide mg/mL: S2PL 1.2, ACS2P1 1.0, S2P2 1.1, S2P3 0.51, S2P4 0.98, S2P6 0.85, S3P1 3.2, S3P2 3.1, S3P3 4.5, S3P4 3.3, S3P5 0.48, SPYGRC 4.4; + enhancement, − inhibition
T9 construct: made in house
T9 sequence (P12763 19-359): T3 sequence (P12763 19-359)
Procedure: as §2, §3

Compound	Percent Changes in Binding Activity SPYGRC-biotin (n = 3) [1]	Percent Changes in Binding Activity ACS2P1-biotin (n = 3) [2]	inhibition of the binding of biotinylated peptide (ACS2P1-biotin) to fetuin [3]	effect on DTH inflammatory response (footpad swelling 24 hours after challenge), in words [4]	IC50 [5]	Percent Changes in Binding Activity SNA/fetuin ([5]; + enhancement, − inhibition)	Percent Changes in Binding Activity PT/fetuin [6]	DTH response (footpad swelling) on later re-challenge with OVA antigen, in words [7]	Percent Changes in Binding Activity MAL/fetuin [8]	Maximal Inhibitory Concentration for Greater than 50% Inhibition [9]	Percent Change in Binding Activity Fetuin [10]	% Changes in Binding Activity, WGA-b to fetuin ([11]; SPYGRC peptide 4.4 mg/ml)	Percent Changes in Binding Activity WGA/fetuin ([11]; peptide mg/mL: S2PL 1.2, ACS2P1 1.0, S2(14-2.3) 1.0, S2P2 1.1, S2P3 0.51, S2P4 0.98, S2P6 0.85, S3P1 3.2, S3P2 3.1, S3P3 4.5, S3P4 3.3, S3P5 0.48, SPYGRC 4.4, S2(WGA) 1.0, WGA (62-73) 1.0)	% Changes in Binding Activity, SNA-b to fetuin ([5]; SPYGRC peptide 4.4 mg/ml, + enhancement, − inhibition)	% Changes in Binding Activity, PT-b to fetuin ([6]; SPYGRC peptide 4.4 mg/ml)	% Changes in Binding Activity, MAL-5 to fetuin ([8]; SPYGRC peptide 4.4 mg/ml)	Percent Change in Binding Activity Asialofetuin [12]	Percent Changes in Binding Activity PT/asialo-fetuin [13]
OC[C@H]1O[C@@H](O[C@H]2[C@H](O)[C@@H](O)C(O)O[C@@H]2CO)[C@H](O)[C@@H](O)[C@H]1O (stereo partly drawn) [Lactose]	+20 ± 11%	+74 ± 7%	failed to reduce the binding of ACS2P1-biotin	–	–	–	–	–	–	–	–	–	–	–	–	–	–	–
CC(=O)N[C@H]1C(O)O[C@H](CO)[C@@H](O)[C@@H]1O (stereo partly drawn) [N-Acetylglucosamine]	+6 ± 5%	−10 ± 2%	10±2%	–	–	–	–	–	–	–	–	–	–	–	–	–	–	–
CC(C)C[C@H](NC(=O)[C@H](CC(C)C)NC(=O)[C@@H](N)CCCNC(=N)N)C(=O)N[C@@H](C)C(=O)N[C@@H](CO)C(=O)N[C@H](C(=O)N[C@@H](CC(N)=O)C(=O)N[C@@H](CO)C(=O)N[C@@H](CCCNC(=N)N)C(=O)N[C@@H](CC(C)C)C(=O)N[C@@H](CS)C(=O)N[C@@H](C)C(=O)N[C@H](C(=O)N[C@@H](Cc1ccccc1)C(=O)N[C@H](C(=O)N[C@@H](CCCNC(=N)N)C(=O)N[C@@H](CC(=O)O)C(=O)NCC(=O)O)C(C)C)C(C)C)[C@@H](C)O [Peptide S3P9a]	–	–	–	effective in reducing a DTH response in mice	2740 ± 860 µM	−41 ± 3%	+328 ± 10%	reduced immune response	+18 ± 6%	NI (Not inhibitory at a peptide concentration of 300 ng/ml.)	–	–	–	–	–	–	–	–
SPYGRC-CO—NH2	–	–	–	effective in reducing a DTH response in mice	–	−2 ± 2%	+34 ± 2%	reduced immune response	−16 ± 0%	480 pg/mL	−24 ± 2%	+7 + 3%	+7 ± 3%	−2 ± 1%	+34 ± 2%	−16 ± 0%	−54 ± 3%	+7 ± 9%
